# Read-outs that look alike come from different tables or passages of the source.
# Experiments:
# [1] = system: uterine muscle isolated from pregnant rats; assay: Oxytocin-induced contraction of uterine muscle isolated from pregnant rats; type: cell-based, rat; settings: Rattus norvegicus, contraction induced with 1 mU/mL of oxytocin, mean ± standard error of 10 samples
# Method: After SD-strain rats on Day 17 of pregnancy were exsanguinated to death, the uterus was isolated to prepare up to 8 myometrial strips (about 4 mm×10 mm) per animal in the direction of the longitudinal muscle while avoiding the adhesion to the placenta. Each strip was suspended in an organ bath containing 10 mL of a modified Locke-Ringer solution at […] (aerated with 95% O2+5% CO2 gas) with a load of about 1.0 g. After the suspended sample became stable for static tension, 5 μg/mL of PG F2α or 1 mU/mL of oxytocin was added to induce contraction. After the sample was allowed to stand for at least 30 minutes to confirm stable rhythmic contraction for frequency and amplitude, the test, control, or positive control substance solution was added cumulatively at intervals of 5 minutes. After the treatment was completed, 1×10^−5 mol/L of forskolin was added to obtain maximal relaxation. The contractile force of the uterine sample was delivered via a force displacement transducer to a strain pressure amplifier and recorded on a Rectigraph.
# Considering the sum of the uterine contraction for 5 minutes before treatment as 100%, the response rate to each concentration of the test, control, or positive control substance solution was calculated from the sum of uterine contraction after treatment for both PG F2α and oxytocin induced contraction. Then, the response rates obtained were used to prepare a concentration-response curve for each sample. The maximum relaxation obtained by adding forskolin was considered as a baseline. Variable points (peaks) with amplitude (tension) of […] or lower were excluded from analysis. Samples showing any of the following events were not used for the study or excluded from analysis.
# Microsoft® Excel 2000 (Microsoft Corp.) was used to sum up and calculate data and prepare tables and figures. Using a concentration-response curve prepared for each sample (X axis: log value of the concentration of the substance added, Y axis: response rate), a negative log value (pEC50) of the concentration that inhibited the uterine contraction by 50% (EC50) was calculated from a straight line connecting the 2 concentrations just above and below 50%, and then converted to EC50 (unit: mol/L).
# [2] = system: women with severe primary dysmenorrhea; assay: Transdermal administration of MN-221 in women with severe primary dysmenorrhea (double-blind cross-over trial); type: in vivo, human
# Method: The study is conducted in women, aged 15-39 years. Some of them are nulliparous and some are parous. All have regular 25-32 day cycles. They have all suffered from severe dysmenorrhea for more than one year. All the women are incapacitated for 1-2 days every month. During the first menstrual day they have continuous low abdominal pain of varying severity and in some women it is accompanied by nausea and vomiting.
# All the women are informed and give their consent before the trial is started. The study is performed as a double-blind cross-over trial in which the patients are given, in random order, MN-221 transdermal patches during one menstrual period and placebo patches of identical appearance during the next period. The patients return to the hospital after the end of each menstrual flow and their dysmenorrheic symptoms are assessed. The therapeutic effect is also assessed and graded as none, weak, and moderate, over to good and very good. All women in the study have signs of ovulation—mid-cycle temperature rise—in the menstrual cycle preceding the trial. The MN-221 or the placebo is given as a five day transdermal patch during menstrual pains. MN-221 is administered as a dose in a range of about 0.02 mg/kg to 1.5 mg/Kg. The volume of the menstrual blood loss is calculated from the hemoglobin content of all the sanitary towels used by the patient and delivered to the department.
# [3] = system: women with primary dysmenorrhea; assay: Myometrial activity, uterine blood flow and lower abdominal pain in women with primary dysmenorrhea (intravenous MN-221); type: in vivo, human
# Method: Myometrial activity and uterine blood flow is recorded in a group of women, aged 16 to 39 years. All have regular cycles of 25 to 32 days. They suffer regularly from menstrual pain. All are so disabled by the condition that they have to abstain from work for one to three days a month, even if they use non-narcotic analgesics. At least during the first menstrual day, all have a continuous lower abdominal pain, which varies in intensity; most of them also complain of symptoms such as nausea and vomiting. The symptoms during the recordings conform to those experienced during previous menstruations.
# In the menstrual cycle preceding the investigation, all women have biphasic basal body temperature recordings, and plasma oestradiol and progesterone concentrations which are higher in the middle of the luteal phase than on the first menstrual day. Recordings are made; each begin within 24 hours of the onset of menstruation lasting for more than three hours.
# Myometrial activity is recorded as changes in intrauterine pressure by a microtransducer catheter. The transducer is connected to an amplifier and a potentiometer recorder. Uterine blood flow is recorded by a technique based on measuring thermodilution from a heated thermistor to blood flow in the surrounding tissue. The thermistor is placed in contact with the endometrium of the fundus and, consequently, the recordings mainly reflect the blood flow at that site. The thermistor and the pressure transducer are inserted through the cervical canal into the uterus. The receptors are kept in position by the rigidity of the transducer catheter and by use of sterile paste around the catheters in the vagina.
# The patients are asked to report all symptoms during recordings, including changes in character and intensity of the menstrual pain. MN-221 is given as a single bolus intravenous injection of 0.30 mg, 0.60 mg, or 0.90 mg. Before and after the administration of MN-221, pulse rate and arterial blood pressure (measured by auscultation) are registered at 5-minute intervals.
# [4] = system: uterine muscles isolated from pregnant rabbits; assay: Oxytocin-induced contractions of isolated uterine muscles of pregnant rabbits (organ bath); type: cell-based, rabbit
# Method: Uterine muscles of pregnant rabbits were isolated, and experiments were conducted based on organ-bath method. After specimens of uterine muscles were suspended and oxytocin (1 mU/mL)-induced contractions was stabilized, the test substance, control substance or positive control substance was administered every 10 min, while doses were increased gradually. Efficacy of drugs was evaluated by comparing the sum of uterine contraction for 10 min before and after administration of drugs, defining the former as 100%.
# [5] = single bolus intravenous injection of 0.30 mg, 0.60 mg, or 0.90 mg
compound,measurement,setting,value
"CN(C)C(=O)COc1ccc2c(c1)C[C@@H](NC[C@H](O)c1ccc(O)c(CCO)c1)CC2 [MN-221, (−)-bis(2-{[(2S)-2-({(2R)-2-hydroxy-2-[4-hydroxy-3-(2-hydroxyethyl)phenyl]ethyl}amino)-1,2,3,4-tetrahydronaphthalen-7-yl]oxy}-N,N-dimethyl-acetamide) monosulfate]",EC50,[1]; read-out: EC50,2.25 ± 0.44 nM
same,EC50,[1]; read-out: pEC50 (converted),1.86 nM
same,therapeutic response (relief) compared to placebo,"[2]; five day transdermal patch, about 0.02 mg/kg to 1.5 mg/Kg",positive response with relief in women as compared to placebo
same,"increase in heart rate, blood pressure, palpitations, tremors, and/or flushes","[2]; transdermal patch, all subjects","substantially no increase in heart rate, blood pressure, palpitations, tremors, and/or flushes"
same,pain relief,[3]; after injection or infusion,pain relief within one minute after injection
same,"increase in heart rate, blood pressure, palpitations, tremors, and/or flushes","[3]; intravenous, all subjects","substantially no increase in heart rate, blood pressure, palpitations, tremors, and/or flushes"
same,duration of effect,[3]; single bolus intravenous injection,lasts for few hours
same,local uterine blood flow,[3]; [5],generally increases
same,myometrial activity,[3]; [5],decreases the myometrial activity
same,EC50,"[4]; Oryctolagus cuniculus, oxytocin (1 mU/mL)-induced contractions, pregnant rabbit uterine muscles, read-out: pD2 values (converted)",2.51 nM
same,inhibitory effect against oxytocin-induced contractions of isolated uterine muscles,[4]; oxytocin (1 mU/mL),demonstrated inhibitory effect
same,"inhibitory effect against oxytocin-induced contractions of uterine muscles, comparison",[4]; pregnant rabbit uterine muscles,"clearly stronger than that of HSR-81, ritodrine and terbutaline"
